The source of these data is patent publication US20200239530A1, “COMPOUNDS AND METHODS OF MODULATING PROTEIN DEGRADATION” (Vividion Therapeutics, Inc., priority 2017, published 2020).

Molecules are shown by their SMILES. Like-named read-outs stand apart in the source and are kept apart here.

What all share (assay): Cysteine liganding, probe competition
Format in all cases: binding

The target in one experiment is T1, UniProt Q8IWR1 (Homo sapiens, UniProt Q8IWR1).
T1 construct: 200 μL of lysate containing 5 mg/ml proteome was treated with 2 μL of 100× compound stock; endogenous in cells
T1 sequence (Q8IWR1 1-403): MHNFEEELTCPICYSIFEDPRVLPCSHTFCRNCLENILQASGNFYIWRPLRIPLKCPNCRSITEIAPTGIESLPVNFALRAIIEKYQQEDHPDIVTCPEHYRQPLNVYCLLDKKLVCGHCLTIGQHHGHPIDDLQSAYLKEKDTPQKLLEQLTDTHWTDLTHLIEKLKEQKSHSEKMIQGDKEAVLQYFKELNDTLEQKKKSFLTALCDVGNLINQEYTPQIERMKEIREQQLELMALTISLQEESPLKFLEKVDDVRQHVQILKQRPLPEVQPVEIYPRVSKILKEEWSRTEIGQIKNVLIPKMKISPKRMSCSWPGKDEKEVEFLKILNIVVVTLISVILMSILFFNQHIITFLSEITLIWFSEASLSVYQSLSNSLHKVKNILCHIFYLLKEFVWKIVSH
An excerpt:
(§1) The following 96-well sample prep protocol was used for sample preparation.

The target of a further experiment is T2, UniProt Q9H0F6 (Homo sapiens, UniProt Q9H0F6).
T2 construct: 200 μL of lysate containing 5 mg/ml proteome was treated with 2 μL of 100× compound stock; endogenous in cells
The settings on record: read-out: percent_inhibition.
Description: as §1

The target in a further experiment is T3, UniProt Q13829 (Homo sapiens, UniProt Q13829).
T3 construct: 200 μL of lysate containing 5 mg/ml proteome was treated with 2 μL of 100× compound stock; endogenous in cells
T3 sequence (Q13829 1-316): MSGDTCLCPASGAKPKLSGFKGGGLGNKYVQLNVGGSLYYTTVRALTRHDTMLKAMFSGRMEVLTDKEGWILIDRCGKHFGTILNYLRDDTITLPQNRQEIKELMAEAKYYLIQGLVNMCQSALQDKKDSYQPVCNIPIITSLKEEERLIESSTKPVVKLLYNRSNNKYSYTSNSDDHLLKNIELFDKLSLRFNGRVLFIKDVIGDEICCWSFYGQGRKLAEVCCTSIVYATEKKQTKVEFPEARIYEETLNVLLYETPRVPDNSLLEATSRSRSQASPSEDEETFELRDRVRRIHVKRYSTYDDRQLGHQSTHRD
Description: as §1

For the next experiment, the target named is T4, UniProt O00623 (Homo sapiens, UniProt O00623).
T4 construct: 200 μL of lysate containing 5 mg/ml proteome was treated with 2 μL of 100× compound stock; endogenous in cells
Description: as §1

The target of a further experiment is T5, UniProt Q9Y2Z0 (Homo sapiens, UniProt Q9Y2Z0).
T5 construct: 200 μL of lysate containing 5 mg/ml proteome was treated with 2 μL of 100× compound stock; endogenous in cells
The settings on record: read-out: percent_inhibition.
Description: as §1

A further experiment addresses T6, UniProt Q96EH8 (Homo sapiens, UniProt Q96EH8).
T6 construct: Cells were resuspended in cold PBS on ice and sonicated with a probe sonicator to achieve lysis; endogenous in cells
T6 sequence (Q96EH8 1-262): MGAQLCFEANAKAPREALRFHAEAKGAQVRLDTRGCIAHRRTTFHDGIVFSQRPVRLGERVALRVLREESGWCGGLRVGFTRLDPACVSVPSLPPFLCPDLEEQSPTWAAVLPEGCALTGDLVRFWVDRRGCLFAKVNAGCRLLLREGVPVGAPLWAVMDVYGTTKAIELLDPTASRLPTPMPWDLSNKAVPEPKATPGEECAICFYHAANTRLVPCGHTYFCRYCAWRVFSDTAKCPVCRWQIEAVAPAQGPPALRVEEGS
The settings on record: for inhibition at 500 µM: read-out: percent inhibition.
Description: as §1

The target in another experiment is T7, UniProt P63208 (Homo sapiens, UniProt P63208).
T7 construct: 200 μL of lysate containing 5 mg/ml proteome was treated with 2 μL of 100× compound stock; endogenous in cells
The settings on record: for percent_inhibition: 100 uM; for inhibition at 100 µM: read-out: percent_inhibition.
Description: as §1

Another experiment has as its target T8, UniProt Q9UPQ4 (Homo sapiens, UniProt Q9UPQ4).
T8 construct: 200 μL of lysate containing 5 mg/ml proteome was treated with 2 μL of 100× compound stock; endogenous in cells
T8 sequence (Q9UPQ4 1-493): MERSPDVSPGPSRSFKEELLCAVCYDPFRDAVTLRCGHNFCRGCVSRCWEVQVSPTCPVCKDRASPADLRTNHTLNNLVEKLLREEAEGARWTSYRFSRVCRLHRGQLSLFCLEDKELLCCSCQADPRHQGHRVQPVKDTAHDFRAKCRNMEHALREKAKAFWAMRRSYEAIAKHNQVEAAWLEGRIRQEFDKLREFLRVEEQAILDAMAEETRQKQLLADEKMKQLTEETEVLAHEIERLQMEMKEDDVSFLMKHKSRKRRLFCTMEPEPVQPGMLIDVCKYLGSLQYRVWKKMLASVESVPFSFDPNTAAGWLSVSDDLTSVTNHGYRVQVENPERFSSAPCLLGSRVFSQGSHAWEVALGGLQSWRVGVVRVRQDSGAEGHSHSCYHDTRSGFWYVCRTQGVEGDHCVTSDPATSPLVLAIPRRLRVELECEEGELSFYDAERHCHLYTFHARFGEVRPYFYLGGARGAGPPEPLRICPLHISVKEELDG
Description: as §1

A further experiment has as its target T9, UniProt Q9BR09 (Homo sapiens, UniProt Q9BR09).
T9 construct: Cells were resuspended in cold PBS on ice and sonicated with a probe sonicator to achieve lysis; endogenous in cells
The conditions noted are these: read-out: percent inhibition.
Description: as §1

In another experiment the target is T10, UniProt Q8WV22 (Homo sapiens, UniProt Q8WV22).
T10 construct: Cells were resuspended in cold PBS on ice and sonicated with a probe sonicator to achieve lysis; endogenous in cells
T10 sequence (Q8WV22 1-266): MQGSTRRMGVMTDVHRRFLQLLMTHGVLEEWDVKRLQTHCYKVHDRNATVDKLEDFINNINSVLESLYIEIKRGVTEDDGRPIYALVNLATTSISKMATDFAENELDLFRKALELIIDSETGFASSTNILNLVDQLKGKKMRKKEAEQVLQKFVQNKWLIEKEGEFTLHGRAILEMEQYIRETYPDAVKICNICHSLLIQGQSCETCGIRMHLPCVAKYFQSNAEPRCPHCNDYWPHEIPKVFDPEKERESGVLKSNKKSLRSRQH
Description: as §1

A further experiment concerns the target T11, UniProt Q8IY92 (Homo sapiens, UniProt Q8IY92).
T11 construct: 200 μL of lysate containing 5 mg/ml proteome was treated with 2 μL of 100× compound stock; endogenous in cells
Description: as §1

The target of a further experiment is T12, UniProt P36406 (Homo sapiens, UniProt P36406).
T12 construct: 200 μL of lysate containing 5 mg/ml proteome was treated with 2 μL of 100× compound stock; endogenous in cells
Description: as §1

For a further experiment, the target named is T13, UniProt A1L020 (Homo sapiens, UniProt A1L020).
T13 construct: Cells were resuspended in cold PBS on ice and sonicated with a probe sonicator to achieve lysis; endogenous in cells
Description: as §1

The mark [1] stands for this setting: 500 uM, read-out: KB02_500 uM_percent_inhibition.
The mark [2] stands for this setting: 100 uM, read-out: percent_inhibition.

T7 sequence (P63208 whole entry, change not shown): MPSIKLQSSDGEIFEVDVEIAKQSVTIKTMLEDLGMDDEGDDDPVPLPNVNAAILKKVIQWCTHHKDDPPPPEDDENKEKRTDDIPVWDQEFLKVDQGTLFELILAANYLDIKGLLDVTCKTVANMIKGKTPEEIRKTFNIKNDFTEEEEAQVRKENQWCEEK
T12 sequence (P36406 whole entry, change not shown): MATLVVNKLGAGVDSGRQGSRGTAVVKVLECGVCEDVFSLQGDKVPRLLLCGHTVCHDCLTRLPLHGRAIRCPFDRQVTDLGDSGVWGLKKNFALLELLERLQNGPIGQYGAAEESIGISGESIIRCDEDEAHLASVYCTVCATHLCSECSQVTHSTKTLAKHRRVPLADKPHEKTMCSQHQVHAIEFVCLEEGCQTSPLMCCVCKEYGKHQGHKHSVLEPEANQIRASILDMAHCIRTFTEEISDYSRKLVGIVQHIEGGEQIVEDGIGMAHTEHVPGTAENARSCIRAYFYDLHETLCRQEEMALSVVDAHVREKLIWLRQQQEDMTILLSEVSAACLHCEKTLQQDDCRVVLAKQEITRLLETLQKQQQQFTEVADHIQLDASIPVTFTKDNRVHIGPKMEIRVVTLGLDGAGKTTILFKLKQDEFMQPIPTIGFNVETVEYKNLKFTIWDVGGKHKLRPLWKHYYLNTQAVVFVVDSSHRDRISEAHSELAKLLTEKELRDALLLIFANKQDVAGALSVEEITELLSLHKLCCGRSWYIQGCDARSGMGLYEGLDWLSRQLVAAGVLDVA
T9 sequence (Q9BR09 whole entry, change not shown): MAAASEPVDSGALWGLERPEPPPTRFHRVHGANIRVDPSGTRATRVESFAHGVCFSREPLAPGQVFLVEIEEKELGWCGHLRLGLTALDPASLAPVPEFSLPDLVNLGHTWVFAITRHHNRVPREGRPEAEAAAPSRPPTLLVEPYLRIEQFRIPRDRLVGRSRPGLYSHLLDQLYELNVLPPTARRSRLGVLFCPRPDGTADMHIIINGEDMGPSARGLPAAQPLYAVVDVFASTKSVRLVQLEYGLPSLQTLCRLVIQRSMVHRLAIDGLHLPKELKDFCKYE
T5 sequence (Q9Y2Z0 whole entry, change not shown): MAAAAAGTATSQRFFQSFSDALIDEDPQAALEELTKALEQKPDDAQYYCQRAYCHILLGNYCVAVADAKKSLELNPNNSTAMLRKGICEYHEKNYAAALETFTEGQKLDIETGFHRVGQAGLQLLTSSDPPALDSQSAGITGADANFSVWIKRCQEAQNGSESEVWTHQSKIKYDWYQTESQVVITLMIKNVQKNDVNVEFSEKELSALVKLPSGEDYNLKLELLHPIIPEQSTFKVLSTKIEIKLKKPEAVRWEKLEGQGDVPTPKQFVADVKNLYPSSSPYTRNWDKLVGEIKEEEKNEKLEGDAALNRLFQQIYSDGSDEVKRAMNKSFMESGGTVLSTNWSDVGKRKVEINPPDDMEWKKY
T13 sequence (A1L020 whole entry, change not shown): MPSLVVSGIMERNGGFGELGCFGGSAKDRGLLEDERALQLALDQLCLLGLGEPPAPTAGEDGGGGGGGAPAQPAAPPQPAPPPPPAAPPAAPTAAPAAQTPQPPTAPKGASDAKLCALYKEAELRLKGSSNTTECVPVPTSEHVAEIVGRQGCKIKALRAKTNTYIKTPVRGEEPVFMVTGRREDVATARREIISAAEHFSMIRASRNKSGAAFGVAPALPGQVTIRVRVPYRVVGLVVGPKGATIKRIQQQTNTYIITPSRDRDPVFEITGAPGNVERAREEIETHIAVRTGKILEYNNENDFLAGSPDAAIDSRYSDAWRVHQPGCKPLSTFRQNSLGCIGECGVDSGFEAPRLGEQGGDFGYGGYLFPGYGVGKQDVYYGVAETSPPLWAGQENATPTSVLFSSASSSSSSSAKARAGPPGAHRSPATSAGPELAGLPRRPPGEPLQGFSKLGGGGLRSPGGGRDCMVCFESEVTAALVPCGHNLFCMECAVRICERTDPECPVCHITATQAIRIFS
T4 sequence (O00623 whole entry, change not shown): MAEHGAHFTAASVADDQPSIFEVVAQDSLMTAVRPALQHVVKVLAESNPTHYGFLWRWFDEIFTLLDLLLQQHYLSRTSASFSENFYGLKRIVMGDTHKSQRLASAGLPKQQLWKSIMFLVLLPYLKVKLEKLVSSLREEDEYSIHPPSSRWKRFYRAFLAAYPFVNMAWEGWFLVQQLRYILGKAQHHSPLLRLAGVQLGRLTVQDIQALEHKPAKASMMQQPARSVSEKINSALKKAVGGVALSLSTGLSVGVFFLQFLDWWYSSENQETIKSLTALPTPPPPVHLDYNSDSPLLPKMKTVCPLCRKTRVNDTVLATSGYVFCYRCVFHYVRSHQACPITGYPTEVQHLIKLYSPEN
T2 sequence (Q9H0F6 whole entry, change not shown): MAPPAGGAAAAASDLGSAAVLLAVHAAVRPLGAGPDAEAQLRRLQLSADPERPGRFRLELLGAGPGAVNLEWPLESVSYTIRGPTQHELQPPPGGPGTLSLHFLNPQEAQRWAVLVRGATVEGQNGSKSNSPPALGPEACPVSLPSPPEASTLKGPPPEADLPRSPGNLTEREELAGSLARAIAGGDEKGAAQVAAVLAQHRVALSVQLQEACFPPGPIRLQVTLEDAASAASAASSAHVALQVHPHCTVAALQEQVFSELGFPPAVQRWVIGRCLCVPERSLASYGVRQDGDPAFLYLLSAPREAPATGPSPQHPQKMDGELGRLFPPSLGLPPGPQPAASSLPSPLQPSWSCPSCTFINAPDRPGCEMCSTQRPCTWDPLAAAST
T11 sequence (Q8IY92 whole entry, change not shown): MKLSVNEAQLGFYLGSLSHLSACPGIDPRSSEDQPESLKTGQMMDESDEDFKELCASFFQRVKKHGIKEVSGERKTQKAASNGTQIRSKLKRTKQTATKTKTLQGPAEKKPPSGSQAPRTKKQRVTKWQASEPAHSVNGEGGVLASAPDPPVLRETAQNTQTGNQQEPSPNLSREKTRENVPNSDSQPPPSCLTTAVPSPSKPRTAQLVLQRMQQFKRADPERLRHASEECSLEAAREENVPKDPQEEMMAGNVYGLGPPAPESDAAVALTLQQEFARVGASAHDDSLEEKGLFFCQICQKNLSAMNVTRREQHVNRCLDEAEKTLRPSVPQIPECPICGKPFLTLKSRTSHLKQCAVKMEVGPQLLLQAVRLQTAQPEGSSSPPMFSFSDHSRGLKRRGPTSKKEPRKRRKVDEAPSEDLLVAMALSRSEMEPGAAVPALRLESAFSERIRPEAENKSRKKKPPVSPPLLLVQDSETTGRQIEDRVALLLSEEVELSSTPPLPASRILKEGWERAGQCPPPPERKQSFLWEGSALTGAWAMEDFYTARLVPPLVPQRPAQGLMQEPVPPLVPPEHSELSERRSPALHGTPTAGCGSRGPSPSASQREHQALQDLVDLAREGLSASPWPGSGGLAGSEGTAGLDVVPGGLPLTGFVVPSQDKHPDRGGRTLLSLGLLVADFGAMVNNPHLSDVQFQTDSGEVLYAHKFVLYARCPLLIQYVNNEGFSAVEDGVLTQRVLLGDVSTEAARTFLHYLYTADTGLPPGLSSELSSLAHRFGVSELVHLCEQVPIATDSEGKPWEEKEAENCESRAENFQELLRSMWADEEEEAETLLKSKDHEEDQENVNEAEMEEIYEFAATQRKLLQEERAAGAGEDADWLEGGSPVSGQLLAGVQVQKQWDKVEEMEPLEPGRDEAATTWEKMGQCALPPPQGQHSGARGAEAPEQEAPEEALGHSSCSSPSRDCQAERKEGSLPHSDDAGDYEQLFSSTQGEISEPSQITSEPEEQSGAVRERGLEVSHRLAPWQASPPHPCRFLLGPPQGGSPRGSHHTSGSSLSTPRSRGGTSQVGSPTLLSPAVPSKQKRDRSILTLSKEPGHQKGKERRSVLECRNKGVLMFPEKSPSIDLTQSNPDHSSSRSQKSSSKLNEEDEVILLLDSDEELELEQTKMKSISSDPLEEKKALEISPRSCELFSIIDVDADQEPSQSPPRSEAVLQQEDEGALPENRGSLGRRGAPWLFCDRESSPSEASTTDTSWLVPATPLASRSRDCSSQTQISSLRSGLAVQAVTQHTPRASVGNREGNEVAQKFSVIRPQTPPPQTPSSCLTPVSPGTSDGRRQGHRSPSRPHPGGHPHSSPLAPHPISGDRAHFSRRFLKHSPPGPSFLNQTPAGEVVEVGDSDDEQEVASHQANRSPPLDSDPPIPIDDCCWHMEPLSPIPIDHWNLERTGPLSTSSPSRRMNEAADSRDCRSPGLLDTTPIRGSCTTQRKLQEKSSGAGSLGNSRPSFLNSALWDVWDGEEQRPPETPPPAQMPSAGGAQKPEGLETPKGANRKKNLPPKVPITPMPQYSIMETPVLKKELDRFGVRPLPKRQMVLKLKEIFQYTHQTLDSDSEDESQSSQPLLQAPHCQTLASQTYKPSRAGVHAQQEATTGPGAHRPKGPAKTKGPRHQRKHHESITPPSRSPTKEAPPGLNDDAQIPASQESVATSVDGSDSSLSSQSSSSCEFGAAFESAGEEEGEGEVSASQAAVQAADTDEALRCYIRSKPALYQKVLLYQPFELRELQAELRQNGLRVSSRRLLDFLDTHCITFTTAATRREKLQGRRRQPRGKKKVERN

Consider `COc1ccc2c(c1)CCCN2C(=O)CCl` [KB02], for which the inhibition at 100 µM was determined as 46% at UniProt Q8IWR1 (read-out: KB02_100 uM_percent_inhibition); 3% at UniProt Q9H0F6; 8% on UniProt Q13829 (setting [2]); 20% at UniProt Q9Y2Z0; 13% on UniProt P63208; 10% on UniProt Q9UPQ4 (100 uM, read-out: KB02_100 uM_percent_inhibition). Further, the “KB02_500 uM_percent_inhibition” value at UniProt Q8IWR1 (500 uM) was found to be 66%. Moreover, the inhibition at 500 µM on UniProt Q8IWR1 (setting [1]) stood at 58%; on UniProt Q13829 (500 uM, read-out: percent_inhibition) it was 15%; on UniProt O00623 (read-out: KB02_500 uM_percent_inhibition), 61%; at UniProt Q96EH8 it was 40%; at UniProt Q9UPQ4 (setting [1]), 27%; on UniProt Q9BR09 it was 32%. For the same molecule, the percent_inhibition worked out at 4% at UniProt Q13829 (100 uM), 9% on UniProt Q13829 (500 uM) and 18% at UniProt P63208. Moreover, the percent inhibition on UniProt Q96EH8 (500 uM) was found to be 54%.

As to `C=CC(=O)N(c1ccccc1)c1ccc(Br)cc1` [KB05], the inhibition at 100 µM stood at 38% at UniProt Q8IWR1 (read-out: KB05_100 uM_percent_inhibition); 13% at UniProt Q8WV22 (100 uM, read-out: KB05_100 uM_percent_inhibition); 25% on UniProt Q9H0F6; 7% on UniProt Q13829 (setting [2]); 10% at UniProt Q8IY92 (read-out: percent_inhibition); 31% at UniProt Q9Y2Z0. For the same molecule, the inhibition at 100 µM stood at 15% at UniProt P63208 and 19% on UniProt A1L020 (read-out: percent inhibition). For the same molecule, at UniProt Q8WV22 (500 uM), the “KB05_500 uM_percent_inhibition” value came to 66%. Moreover, the inhibition at 500 µM on UniProt Q8WV22 (500 uM, read-out: KB05_500 uM_percent_inhibition) came out at 64%; on UniProt Q96EH8, 44%; at UniProt Q9BR09 it was 3%; at UniProt P36406 (read-out: KB05_500 uM_percent_inhibition) it was 61%. Further, the percent_inhibition at UniProt P63208 is 14%.

Regarding `O=C(CCl)Nc1cc(C(F)(F)F)cc(C(F)(F)F)c1` [KBO3], the “KB03_100 uM_percent_inhibition” value on UniProt Q8WV22 (100 uM) was 2%. The “KB03_500 uM_percent_inhibition” value at UniProt O00623 (500 uM) stood at 51%; at UniProt Q9UPQ4 (500 uM), 32%; on UniProt P36406 (500 uM), 17%. On UniProt Q8IY92 (100 uM), this molecule yielded a percent_inhibition of 8%. The percent inhibition on UniProt A1L020 (100 uM) was determined as 52%.
